Reference: patent US9844546B2, “Antibody against human HIF hydroxylase” (OXFORD UNIVERSITY INNOVATION LIMITED, priority 2001, dated 2017)

Tested on: cytoplasmic extract-dependent modification of the 5′ VHL E3 target site
Test: Peptide competition of cytoplasmic extract-dependent modification of GAL-HIF-1α 344-553, in vitro VHL E3 ubiquitylation
Format: biochemical, human
Conditions: 12.5 μM peptide, RCC4 cytoplasmic extract
Method: The E1 activating enzyme used in ubiquitylation assays was either obtained from Affiniti Research (Exeter, UK) or purified from BL21 (DE3) E. coli transfected with plasmid expressing His6-tagged mouse E1. His6-E1 was purified by Ni^2+-agarose affinity chromatography. After dialysis against phosphate buffered saline, glycerol was added to 10% (vol/vol) and 25 ng/μl aliquots stored at −80° C. Human CDC34 recombinant E2 enzyme was from Affiniti Research (Exeter, UK). VHL E3 was obtained by anti-HA immunoprecipitation from stably transfected 7860-VHLHA cell lysates (Iliopoulos et al). GAL-HIF-1α substrate was prepared by anti-GAL immunoprecipitation from [^35S] methionine-labeled TnT rabbit reticulocyte (Promega) translates. Each 40 μl ubiquitylation reaction consisted of 4 μl of 5 mg/ml ubiquitin, 4 μl of 10×ATP regenerating system (20 mM Tris pH7.5, 10 mM ATP, 10 mM magnesium acetate, 300 mM creatine phosphate, 0.5 mg/ml creatine phosphokinase), 2 μl, E1, 3 μl E2, 6 μl VHL E3 immunopurified on protein G sepharose, 6 μl GAL-HIF-1α substrate immunopurified on agarose beads. Reactions were incubated at 30° C. for 2 h with occasional mixing, stopped by the addition of SDS sample buffer and analysed by SDS-PAGE and autoradiography. Cytoplasmic extract-based ubiquitylation assays have been previously described (Cockman).
It has been shown above that the 3′ VHL E3 target site responds to oxygen level via hydroxylation at proline residue 564. This praline residue forms part of a potential motif conserved between the 5′ and 3′ target sites. Mutation of the corresponding proline residue (P402A) in the 5′ target site also results in functional inactivation. It was possible therefore that proline residue 402 was also a target for regulatory hydroxylation, To test this we asked whether polypeptides corresponding to the 3′ VHL E3 target site could interfere with the cytoplasmic extract-dependent modification of the 5′ VHL E3 target site. […]

| Substance | competition of cytoplasmic extract effect on VHL-dependent ubiquitylation of GAL 344-553 |
| --- | --- |
| 19:Pro564Hyp: polypeptide (HIF-1α residues 556-574) containing a trans-4-hydroxy-S-proline residue at position 564 | unable to compete |
| 19:WT: polypeptide comprising HIF-1α residues 556 to 574 | completely ablate the cytoplasmic extract effect |
